B1: abciximab (antibody, chains of the INN, looked up, V domains shown)
VH: EVQLQQSGTVLARPGASVKMSCEASGYTFTNYWMHWVKQRPGQGLEWIGAIYPGNSDTSYIQKFKGKAKLTAVTSTTSVYMELSSLTNEDSAVYYCTLYDGYYVFAYWGQGTLVTVSA
VL: EIVLTQSPVTLSVTPGDSVSLSCRASRDISNNLHWFQQTSHESPRLLIKYASQSMSGIPSRFSGSGSGTDFTLSINSVETEDFGMYFCQQTNSWPYTFGGGTKLEIK
modifications: Fab

Assays:
Type in all cases: cell-based, human
[1] = tested on: re-calcified citrated blood clotted with thrombin; experiment: T2MR monitoring of fibrinolysis of thrombin-clotted blood; conditions: tPA added 30 minutes after 3 U/ml thrombin
Method: Blood clotting was initiated by addition of 2 μL of a 0.2 M CaCl2 solution and 2 μL of thrombin (Sigma-Aldrich, St. Louis, Mo., final concentration 0.1-3.0 U/ml) to 34 μL of blood in a 200 μL PCR tube (Eppendorf, Hauppauge, N.Y.). All components were pre-warmed for 1 min at 37° C. before mixing. Samples were mixed by three aspiration and dispersion cycles using a pipette, then put into the T2MR reader for measurement. Typical run length was 30 min with a 10 s sampling rate. For some experiments, data collection time was extended to 1 hr.
To establish T2MR signatures for fibrinolysis, tissue plasminogen activator (tPA, Alteplase, Genentech, South San Francisco, Calif.) was added to samples clotted by thrombin. Blood clotting was initiated as described above, and the sample was incubated for […] to allow for complete clot contraction. Then, 0.5-1 μM tPA was added to clotted and contracted samples. Care was taken not to disturb clots, which were usually attached to the tube wall. The pipette tip was carefully placed into the visible serum layer on the tube side opposite to the contracted clot, and 3 μL of tPA solution was added with a single dispensing of the pipettor. The tPA solutions were made from a stock solution prepared according to manufacturer instructions using 0.15 M sodium chloride, pH 7.4.
We measured the dependencies of the T2MR signals during clotting of re-calcified citrated blood samples from healthy donors initiated by adding 3 U/ml thrombin. Thrombin activates platelets and cleaves fibrinogen to form a three-dimensional fibrin network stabilized by factor XIIIa. Addition of thrombin led to rapid formation of a gelatinous meshwork that filled the sample volume accompanied by a small, rapid decrease in the T2MR signal over tens of seconds due to the sample transitioning from a liquid to gel state. […]
We then assessed the sensitivity of the T2MR platform to fibrinolysis by adding tissue-type plasminogen activator (tPA) to the clotted samples 30 minutes after thrombin.

citrated blood [2] = experiment: Thromboelastography maximum amplitude (TEG MA) after calcium and kaolin activation; conditions: ex vivo addition at 4 or 8 μg/ml; samples from 3 healthy donors
Method: (§1) A 0.5 mg/ml solution of abciximab was prepared by diluting the stock 10 mg/5 ml solution by […] in saline. The abciximab-treated blood samples were incubated for at least 5 min prior to clotting. Clotting was initiated by adding 2 μL 0.2 M CaCl2 and 2 μL TEG kaolin to 34 μL of abciximab-treated blood sample. To compare the T2MR signal to TEG MA, a ΔT2 parameter was calculated by taking the difference in T2 between the upper and middle peaks at a time point 13 min after adding calcium and kaolin. The TEG MA values were measured on the same samples following manufacturer instructions.
(§2) For comparison between T2MR and TEG, calcium kaolin activation of citrated blood was used and normal donor samples were treated with various amounts of abciximab, an inhibitor of the platelet glycoprotein allbβ3 receptor that binds fibrin and is essential for clot contraction.

citrated blood [3] = experiment: T2MR clot strength (ΔT2) after calcium and kaolin activation; conditions: ex vivo addition at 4 or 8 μg/ml; 13 minutes after activation; samples from 3 healthy donors
Method: as §1, §2

Molecule	T2 value of the middle peak after tPA addition [1]	T2 value of the third peak after tPA addition (persisted) [1]	T2 value of the upper peak after tPA addition [1]	TEG MA (citrated blood [2])	ΔT2 (difference between upper and middle T2 values in the T2MR signature) (citrated blood [3])
Alteplase [tPA]	decreased from 250 to 175	~100 ms	decreased rapidly	–	–
B1	–	–	–	less than 40	< 100 ms

From US20170045494A1, “SYSTEMS AND METHODS FOR IDENTIFYING COAGULOPATHIES” (T2 Biosystems, Inc., priority 2014, published 2017)
